Laboratory results as given in US20250320206A1, “STAT6 DEGRADERS” (Gilead Sciences, Inc., priority 2024, published 2025).

Legend:
[1] = target: T1, STAT6 (Homo sapiens, UniProt P42226); experiment: Stat6 Degrader Assay (HiBiT based, HeLa LgBiT clone 4.14); type: cell-based; conditions: HeLa LgBiT clone 4.14 HiBiT-STAT6, 4-24 h incubation; values given for compounds with >80% Emax; geometric mean; read-out: STAT6 degradation DC50
T1 construct: These cells express endogenous STAT6; host or cells: HeLa LgBiT clone 4.14
T1 sequence (P42226 1-847): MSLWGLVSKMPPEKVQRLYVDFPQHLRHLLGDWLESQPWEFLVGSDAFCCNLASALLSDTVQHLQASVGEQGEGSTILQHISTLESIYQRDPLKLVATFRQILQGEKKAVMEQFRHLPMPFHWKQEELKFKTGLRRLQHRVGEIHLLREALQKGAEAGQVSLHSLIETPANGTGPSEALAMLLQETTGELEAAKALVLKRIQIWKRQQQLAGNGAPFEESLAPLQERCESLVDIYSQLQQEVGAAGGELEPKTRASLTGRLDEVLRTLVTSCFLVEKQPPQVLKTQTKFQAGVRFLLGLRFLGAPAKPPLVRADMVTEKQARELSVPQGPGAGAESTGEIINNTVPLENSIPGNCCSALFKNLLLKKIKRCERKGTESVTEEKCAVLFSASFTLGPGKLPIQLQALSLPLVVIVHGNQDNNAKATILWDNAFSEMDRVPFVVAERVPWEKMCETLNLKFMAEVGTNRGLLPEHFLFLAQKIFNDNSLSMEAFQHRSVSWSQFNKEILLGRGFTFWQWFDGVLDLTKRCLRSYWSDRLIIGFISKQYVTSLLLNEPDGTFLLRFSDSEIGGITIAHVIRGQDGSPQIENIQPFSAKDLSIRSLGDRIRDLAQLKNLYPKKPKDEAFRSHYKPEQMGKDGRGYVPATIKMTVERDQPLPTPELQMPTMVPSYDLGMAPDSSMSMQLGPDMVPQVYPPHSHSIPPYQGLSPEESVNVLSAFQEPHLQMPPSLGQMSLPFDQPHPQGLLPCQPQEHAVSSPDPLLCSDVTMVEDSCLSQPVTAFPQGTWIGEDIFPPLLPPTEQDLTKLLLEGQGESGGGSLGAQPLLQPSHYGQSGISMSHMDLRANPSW
Method in brief: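 HeLa LgBiT clone 4.14 cells with CRISPR HiBiT-tagged endogenous STAT6, 5000 cells/well, compound dosed then incubated 4-24 h at 37° C, 5% CO2. Nano-Glo substrate added, 0.5 h, luminescence read as non-degraded STAT6. Terfenadine 50 μM (cell kill) defines 100% degradation.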

[2] = system: Eotaxin-3 release in human whole blood stimulated with IL-4; experiment: Human Whole Blood Eotaxin-3 Assay (IL-4 stimulated eotaxin-3 release); type: cell-based; conditions: IL-4 stimulation, 48 h, values given for compounds with >80% Emax, geometric mean
Method in brief: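 Lithium-heparin human whole blood preincubated 2 h at 37° C with 4-fold serially diluted compounds (0.5% DMSO), then stimulated with recombinant human IL-4 ([…]) for 48 h. Eotaxin-3 (CCL26) in supernatant quantified by MSD immunoassay.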

SMILES | DC50 [1] | EC50 [2]
CNc1ccn(-c2ccnc3c2cc([C@H](C)N2CC=C(c4c(C)cc(C(=O)N5CCC(CN6CCN(c7ccc8c(c7)C(C)(C)C(=O)N8C7CCC(=O)NC7=O)CC6)CC5)cc4F)CC2)n3C)c(=O)c1 (stereo partly drawn) [Example 3u304, 3-(5-(4-((1-(3-fluoro-5-methyl-4-(1-((S)-1-(1-methyl-4-(4-(methylamino)-2-oxopyridin-1 (2H)-yl)-1H-pyrrolo[2,3-b]pyridin-2-yl)ethyl)-1,2,3,6-tetrahydropyridin-4-yl)benzoyl)piperidin-4-yl)methyl)piperazin-1-yl)-3,3-dimethyl-2-oxoindolin-1-yl)piperidine-2,6-dione] | 6.5 nM | 10.8 nM
CNc1cc(=O)n(-c2ccnc3c2cc(CN2CCC(c4c(F)cc(C(=O)N5CCC(CN6CCN(Cc7ccc8c(c7)C7(CC7)C(=O)N8[C@@H]7CCC(=O)NC7=O)C[C@@H]6C)CC5)cc4F)CC2)n3C)cc1F (single isomer, unassigned) [Example 3u221] | 1.9 nM | 4.5 nM
CNc1cc(=O)n(-c2ccnc3c2cc([C@H](C)N2CC=C(c4c(C)cc(C(=O)N5CCC(CN6CCN(c7ccc8c(c7)n(C)c(=O)n8C7CCC(=O)NC7=O)CC6)CC5)cc4F)CC2)n3C)cc1F (stereo partly drawn) [Example 3u298, 3-(5-(4-((1-(3-fluoro-4-(1-((S)-1-(4-(5-fluoro-4-(methylamino)-2-oxopyridin-1 (2H)-yl)-1-methyl-1H-pyrrolo[2,3-b]pyridin-2-yl)ethyl)-1,2,3,6-tetrahydropyridin-4-yl)-5-methylbenzoyl)-piperidin-4-yl)methyl)piperazin-1-yl)-3-methyl-2-oxo-2,3-dihydro-1H-benzo[d]imidazol-1-yl)-piperidine-2,6-dione] | 1.8 nM | 2.6 nM
C[C@H]1CN(Cc2ccc3c(c2)C2(CC2)C(=O)N3C2CCC(=O)NC2=O)CCN1CC1CCN(C(=O)c2cc(F)c(C3CCN(Cc4cc5c(-n6cc(F)c(N)c(F)c6=O)ccnc5n4C)CC3)c(F)c2)CC1 (stereo partly drawn) [Example 3u96, 3-(5′-(((S)-4-((1-(4-(1-((4-(4-amino-3,5-difluoro-2-oxopyridin-1 (2H)-yl)-1-methyl-1H-pyrrolo[2,3-b]pyridin-2-yl)methyl)piperidin-4-yl)-3,5-difluorobenzoyl)piperidin-4-yl)methyl)-3-methylpiperazin-1-yl)methyl)-2′-oxospiro[cyclopropane-1,3′-indolin]-1′-yl)piperidine-2,6-dione] | 4.1 nM | 1 nM
CNc1cc(=O)n(-c2ccnc3c2cc([C@H](C)N2CC=C(c4c(C)cc(C(=O)N(C)c5ccc(N6CCC(Cc7ccc8c(c7)n(C)c(=O)n8[C@H]7CCC(=O)NC7=O)CC6)nc5)cc4F)CC2)n3C)cc1F (single isomer, unassigned) [Example 3u242] | 0.2 nM | 0.2 nM
CNc1ccn(-c2ccnc3c2cc([C@H](C)N2CCC(c4c(F)cc(C(=O)N5CCC(CN6CCN(Cc7ccc8c(c7)C(C)(C)C(=O)N8[C@@H]7CCC(=O)NC7=O)C[C@@H]6C)CC5)cc4F)CC2)n3C)c(=O)c1 (single isomer, unassigned) [Example 3u82] | 1.1 nM | 1.1 nM
CNc1cc(=O)n(-c2ccnc3c2cc([C@H](C)N2CC=C(c4c(C)cc(C(=O)N5CCC(CN6CCN(Cc7ccc8c(c7)C7(CCC7)C(=O)N8C7CCC(=O)NC7=O)CC6)CC5)cc4F)CC2)n3C)cc1F (stereo partly drawn) [Example 3u258, 3-(5′-((4-((1-(3-fluoro-4-(1-((S)-1-(4-(5-fluoro-4-(methylamino)-2-oxopyridin-1 (2H)-yl)-1-methyl-1H-pyrrolo[2,3-b]pyridin-2-yl)ethyl)-1,2,3,6-tetrahydropyridin-4-yl)-5-methylbenzoyl)piperidin-4-yl)methyl)piperazin-1-yl)methyl)-2′-oxospiro[cyclobutane-1,3′-indolin]-1′-yl)piperidine-2,6-dione] | 3.1 nM | 7 nM
CNc1ccn(-c2ccnc3c2cc([C@H](C)N2CC=C(c4c(C)cc(C(=O)N(C)c5ccc(C6CCN(Cc7ccc8c(c7)n(C)c(=O)n8C7CCC(=O)NC7=O)CC6)cc5)cc4F)CC2)n3C)c(=O)c1 (stereo partly drawn) [Example 3u225, N-(4-(1-((1-(2,6-dioxopiperidin-3-yl)-3-methyl-2-oxo-2,3-dihydro-1H-benzo[d]-imidazol-5-yl)methyl)piperidin-4-yl)phenyl)-3-fluoro-N,5-dimethyl-4-(1-((S)-1-(1-methyl-4-(4-(methyl-amino)-2-oxopyridin-1 (2H)-yl)-1H-pyrrolo[2,3-b]pyridin-2-yl)ethyl)-1,2,3,6-tetrahydropyridin-4-yl)-benzamide] | 0.1 nM | 0.3 nM
CNc1ccn(-c2ccnc3c2cc(CN2CCC(c4c(F)cc(C(=O)N5CCC(CN6CCN(Cc7ccc8c(c7)n(C)c(=O)n8[C@H]7CCC(=O)NC7=O)CC6)CC5)cc4F)CC2)n3C)c(=O)c1 (single isomer, unassigned) [Example 3u30] | 2.2 nM | 1.6 nM
CNc1c(F)cn(-c2ccnc3c2cc(CN2CCC(c4c(F)cc(C(=O)N5CCC(CN6CCN(Cc7ccc8c(c7)C7(CC7)C(=O)N8C7CCC(=O)NC7=O)C[C@@H]6C)CC5)cc4F)CC2)n3C)c(=O)c1F (stereo partly drawn) [Example 3u115, 3-(5′-(((S)-4-((1-(4-(1-((4-(3,5-difluoro-4-(methylamino)-2-oxopyridin-1 (2H)-yl)-1-methyl-1H-pyrrolo[2,3-b]pyridin-2-yl)methyl)piperidin-4-yl)-3,5-difluorobenzoyl)piperidin-4-yl)-methyl)-3-methylpiperazin-1-yl)methyl)-2′-oxospiro[cyclopropane-1,3′-indolin]-1′-yl)piperidine-2,6-dione] | 8.3 nM | 9.1 nM
CNc1cc(=O)n(-c2ccnc3c2cc([C@H](C)N2CC=C(c4c(C)cc(C(=O)N5CCC(CC6CCN(c7ccc8c(c7)C7(CC7)C(=O)N8C7CCC(=O)NC7=O)CC6)CC5)cc4F)CC2)n3C)cc1F (stereo partly drawn) [Example 3u284, 3-(5′-(4-((1-(3-fluoro-4-(1-((S)-1-(4-(5-fluoro-4-(methylamino)-2-oxopyridin-1 (2H)-yl)-1-methyl-1H-pyrrolo[2,3-b]pyridin-2-yl)ethyl)-1,2,3,6-tetrahydropyridin-4-yl)-5-methylbenzoyl)piperidin-4-yl)methyl)piperidin-1-yl)-2′-oxospiro[cyclopropane-1,3′-indolin]-1′-yl)piperidine-2,6-dione] | 22.6 nM | 24 nM
CNc1ccn(-c2ccnc3c2cc(CN2CC=C(c4c(C)cc(C(=O)N5CCC(CN6CCN(Cc7ccc8c(c7)n(C)c(=O)n8[C@H]7CCC(=O)NC7=O)CC6)CC5)cc4F)CC2)n3C)c(=O)c1 (single isomer, unassigned) [Example 3u161] | 3.1 nM | 1.7 nM
CNc1cc(=O)n(-c2ccnc3c2cc(CN2CCC(c4c(F)cc(C(=O)N5CCC(CN6CCN(Cc7ccc8c(c7)n(C)c(=O)n8C7CCC(=O)NC7=O)C[C@@H]6C)CC5)cc4F)CC2)n3C)cc1F (stereo partly drawn) [Example 3u60, 3-(5-(((S)-4-((1-(3,5-difluoro-4-(1-((4-(5-fluoro-4-(methylamino)-2-oxopyridin-1 (2H)-yl)-1-methyl-1H-pyrrolo[2,3-b]pyridin-2-yl)methyl)piperidin-4-yl)benzoyl)piperidin-4-yl)methyl)-3-methylpiperazin-1-yl)methyl)-3-methyl-2-oxo-2,3-dihydro-1H-benzo[d]imidazol-1-yl)piperidine-2,6-dione] | 0.7 nM | 1.6 nM
CNc1cc(=O)n(-c2ccnc3c2cc(CN2CCC(c4c(F)cc(C(=O)N5CCC(CN6CCN(Cc7ccc8c(c7)C7(CC7)C(=O)N8[C@H]7CCC(=O)NC7=O)C[C@@H]6C)CC5)cc4F)CC2)n3C)cc1F (single isomer, unassigned) [Example 3u220] | 1.3 nM | 2.4 nM
CNc1ccn(-c2ccnc3c2cc(CN2CC=C(c4c(C)cc(C(=O)N(C)c5ccc(C6CCN(Cc7ccc8c(c7)n(C)c(=O)n8C7CCC(=O)NC7=O)CC6)cc5)cc4F)CC2)n3C)c(=O)c1 (stereo not drawn) [Example 3u247, N-(4-(1-((1-(2,6-dioxopiperidin-3-yl)-3-methyl-2-oxo-2,3-dihydro-1H-benzo[d]-imidazol-5-yl)methyl)piperidin-4-yl)phenyl)-3-fluoro-N,5-dimethyl-4-(1-((1-methyl-4-(4-(methyl-amino)-2-oxopyridin-1 (2H)-yl)-1H-pyrrolo[2,3-b]pyridin-2-yl)methyl)-1,2,3,6-tetrahydropyridin-4-yl)benzamide] | 0.04 nM | 0.3 nM
